Species: Rattus norvegicus
Experiment: Open TG-GATES - Regimen: Daily Repeat
Format: toxicity, organism-based, Sprague-Dawley
Set-up: regimen Daily Repeat, gender Male, age 6 weeks
Conditions: in vivo, po, route gavage; for APTT / Bas / Eos / Fbg / Hb / Ht / Lym / MCH / MCHC / MCV / Mono / Neu / PT / Plat / RBC / Ret / WBC: tissue Blood; for KIDNEY_L / KIDNEY_R / KIDNEY_TOTAL: tissue Kidney; for LIVER: tissue Liver; for A/G / ALP / ALT / AST / BUN / CRE / Ca / Cl / DBIL / GLC / IP / K / LDH / Na / PL / RALB / TBIL / TC / TG / TP / gamma-GTP: tissue Plasma
[1] = 80 mg/kg, 72 h, dose level Middle, time 3 day
[2] = 80 mg/kg, […], dose level Middle, time 7 day
[3] = 80 mg/kg, […], dose level Middle, time 14 day
[4] = 80 mg/kg, […], dose level Middle, time 28 day
[5] = 250 mg/kg, 72 h, dose level High, time 3 day
[6] = 250 mg/kg, […], dose level High, time 7 day
[7] = 250 mg/kg, […], dose level High, time 14 day
[8] = 250 mg/kg, […], dose level High, time 28 day

CCSCC[C@H](N)C(=O)O [ETHIONINE]
TERMINAL_BW [1]: 221.5 g
APTT [1]: 24.9 s
Bas [1]: 0%
Eos [1]: 1%
Fbg [1]: 201 mg/dL
Hb [1]: 14 g/dL
Ht [1]: 41.5%
Lym [1]: 85.4%
MCH [1]: 20.9 pg
MCHC [1]: 33.7%
MCV [1]: 62.1 fL
Mono [1]: 2.8%
Neu [1]: 9.6%
PT [1]: 15.3 s
Plat [1]: 123 x10_4/uL
RBC [1]: 669.2 x10_4/ul
Ret [1]: 4.8%
WBC [1]: 93.2 x10_2/uL
KIDNEY_L [1]: 1 g
KIDNEY_R [1]: 1 g
KIDNEY_TOTAL [1]: 2 g
LIVER [1]: 9.7 g
A/G [1]: 1.8
ALP [1]: 983 IU/L
ALT [1]: 37.8 IU/L
AST [1]: 65.6 IU/L
BUN [1]: 17.2 mg/dL
CRE [1]: 0.4 mg/dL
Ca [1]: 10.5 mg/dL
Cl [1]: 102 meq/L
DBIL [1]: 0.088 mg/dL
GLC [1]: 197.8 mg/dL
IP [1]: 8.2 mg/dL
K [1]: 3.8 meq/L
LDH [1]: 211 IU/L
Na [1]: 141.6 meq/L
PL [1]: 118.2 mg/dL
RALB [1]: 3.6 g/dL
TBIL [1]: 0.2 mg/dL
TC [1]: 47.2 mg/dL
TG [1]: 94.8 mg/dL
TP [1]: 5.7 g/dL
gamma-GTP [1]: 1.2 IU/L
TERMINAL_BW [2]: 252.3 g
TERMINAL_BW [3]: 307.2 g
TERMINAL_BW [4]: 355.5 g
APTT [2]: 25.7 s
Bas [2]: 0%
Eos [2]: 0.8%
Fbg [2]: 216.4 mg/dL
Hb [2]: 14.2 g/dL
Ht [2]: 41.8%
Lym [2]: 81.8%
MCH [2]: 20.8 pg
MCHC [2]: 33.9%
MCV [2]: 61.4 fL
Mono [2]: 2%
Neu [2]: 14.4%
PT [2]: 15 s
Plat [2]: 120.9 x10_4/uL
RBC [2]: 681.2 x10_4/ul
Ret [2]: 3.1%
WBC [2]: 117.7 x10_2/uL
APTT [3]: 24 s
Bas [3]: 0%
Eos [3]: 1%
Fbg [3]: 214.6 mg/dL
Hb [3]: 14.4 g/dL
Ht [3]: 42%
Lym [3]: 73%
MCH [3]: 20.3 pg
MCHC [3]: 34.1%
MCV [3]: 59.4 fL
Mono [3]: 3%
Neu [3]: 23%
PT [3]: 14.2 s
Plat [3]: 121.6 x10_4/uL
RBC [3]: 708.4 x10_4/ul
Ret [3]: 4.1%
WBC [3]: 143.7 x10_2/uL
APTT [4]: 23.9 s
Bas [4]: 0%
Eos [4]: 0.6%
Fbg [4]: 197 mg/dL
Hb [4]: 15 g/dL
Ht [4]: 43.1%
Lym [4]: 78.6%
MCH [4]: 19.7 pg
MCHC [4]: 34.9%
MCV [4]: 56.3 fL
Mono [4]: 2.4%
Neu [4]: 17.6%
PT [4]: 14.6 s
Plat [4]: 114.3 x10_4/uL
RBC [4]: 765.2 x10_4/ul
Ret [4]: 1.8%
WBC [4]: 115.9 x10_2/uL
KIDNEY_L [2]: 1.1 g
KIDNEY_R [2]: 1.1 g
KIDNEY_TOTAL [2]: 2.2 g
KIDNEY_L [3]: 1.2 g
KIDNEY_R [3]: 1.2 g
KIDNEY_TOTAL [3]: 2.3 g
KIDNEY_L [4]: 1.3 g
KIDNEY_R [4]: 1.3 g
KIDNEY_TOTAL [4]: 2.7 g
LIVER [2]: 10.5 g
LIVER [3]: 13.2 g
LIVER [4]: 14.1 g
A/G [2]: 1.8
ALP [2]: 1213.6 IU/L
ALT [2]: 37.4 IU/L
AST [2]: 68.6 IU/L
BUN [2]: 17.6 mg/dL
CRE [2]: 0.4 mg/dL
Ca [2]: 10.4 mg/dL
Cl [2]: 103.6 meq/L
DBIL [2]: 0.1 mg/dL
GLC [2]: 186.6 mg/dL
IP [2]: 7.3 mg/dL
K [2]: 3.8 meq/L
LDH [2]: 193.2 IU/L
Na [2]: 141.6 meq/L
PL [2]: 126.6 mg/dL
RALB [2]: 3.6 g/dL
TBIL [2]: 0.2 mg/dL
TC [2]: 46.4 mg/dL
TG [2]: 122.6 mg/dL
TP [2]: 5.5 g/dL
gamma-GTP [2]: 0.8 IU/L
A/G [3]: 1.8
ALP [3]: 894 IU/L
ALT [3]: 33 IU/L
AST [3]: 58 IU/L
BUN [3]: 16.6 mg/dL
CRE [3]: 0.4 mg/dL
Ca [3]: 10.4 mg/dL
Cl [3]: 102.4 meq/L
DBIL [3]: 0.098 mg/dL
GLC [3]: 201.8 mg/dL
IP [3]: 7.3 mg/dL
K [3]: 3.4 meq/L
LDH [3]: 187.8 IU/L
Na [3]: 141.4 meq/L
PL [3]: 141.8 mg/dL
RALB [3]: 3.8 g/dL
TBIL [3]: 0.2 mg/dL
TC [3]: 55.4 mg/dL
TG [3]: 128 mg/dL
TP [3]: 5.9 g/dL
gamma-GTP [3]: 0.8 IU/L
A/G [4]: 1.7
ALP [4]: 747.8 IU/L
ALT [4]: 30.2 IU/L
AST [4]: 55.8 IU/L
BUN [4]: 19.4 mg/dL
CRE [4]: 0.5 mg/dL
Ca [4]: 10.2 mg/dL
Cl [4]: 105.8 meq/L
DBIL [4]: 0.1 mg/dL
GLC [4]: 187.4 mg/dL
IP [4]: 6.7 mg/dL
K [4]: 3.7 meq/L
LDH [4]: 220.4 IU/L
Na [4]: 142.6 meq/L
PL [4]: 138.6 mg/dL
RALB [4]: 3.8 g/dL
TBIL [4]: 0.2 mg/dL
TC [4]: 57.4 mg/dL
TG [4]: 124 mg/dL
TP [4]: 6 g/dL
gamma-GTP [4]: 1 IU/L
TERMINAL_BW [5]: 209.1 g
APTT [5]: 27.3 s
Bas [5]: 0%
Eos [5]: 1%
Fbg [5]: 204.2 mg/dL
Hb [5]: 15.1 g/dL
Ht [5]: 43.9%
Lym [5]: 87%
MCH [5]: 21.5 pg
MCHC [5]: 34.3%
MCV [5]: 62.9 fL
Mono [5]: 2.4%
Neu [5]: 8.8%
PT [5]: 16.2 s
Plat [5]: 114.9 x10_4/uL
RBC [5]: 698.8 x10_4/ul
Ret [5]: 4%
WBC [5]: 108.9 x10_2/uL
KIDNEY_L [5]: 0.9 g
KIDNEY_R [5]: 0.9 g
KIDNEY_TOTAL [5]: 1.9 g
LIVER [5]: 8.7 g
A/G [5]: 1.9
ALP [5]: 1059.2 IU/L
ALT [5]: 42 IU/L
AST [5]: 73.2 IU/L
BUN [5]: 15.8 mg/dL
CRE [5]: 0.4 mg/dL
Ca [5]: 10.4 mg/dL
Cl [5]: 102 meq/L
DBIL [5]: 0.09 mg/dL
GLC [5]: 183.8 mg/dL
IP [5]: 8.3 mg/dL
K [5]: 3.8 meq/L
LDH [5]: 236.4 IU/L
Na [5]: 140 meq/L
PL [5]: 94 mg/dL
RALB [5]: 3.5 g/dL
TBIL [5]: 0.2 mg/dL
TC [5]: 36.6 mg/dL
TG [5]: 40.4 mg/dL
TP [5]: 5.5 g/dL
gamma-GTP [5]: 0.8 IU/L
TERMINAL_BW [6]: 226 g
TERMINAL_BW [7]: 268.3 g
TERMINAL_BW [8]: 314.2 g
APTT [6]: 28 s
Bas [6]: 0%
Eos [6]: 0.4%
Fbg [6]: 210.4 mg/dL
Hb [6]: 15.1 g/dL
Ht [6]: 44.3%
Lym [6]: 83.4%
MCH [6]: 20.9 pg
MCHC [6]: 34%
MCV [6]: 61.6 fL
Mono [6]: 2.2%
Neu [6]: 13.6%
PT [6]: 15.5 s
Plat [6]: 87.8 x10_4/uL
RBC [6]: 720.4 x10_4/ul
Ret [6]: 1%
WBC [6]: 122.2 x10_2/uL
APTT [7]: 26 s
Bas [7]: 0%
Eos [7]: 0.6%
Fbg [7]: 205.4 mg/dL
Hb [7]: 14.3 g/dL
Ht [7]: 42.2%
Lym [7]: 75.8%
MCH [7]: 19.9 pg
MCHC [7]: 34%
MCV [7]: 58.5 fL
Mono [7]: 2.6%
Neu [7]: 20.2%
PT [7]: 15.4 s
Plat [7]: 100.5 x10_4/uL
RBC [7]: 722.2 x10_4/ul
Ret [7]: 3.8%
WBC [7]: 133.6 x10_2/uL
APTT [8]: 27.8 s
Bas [8]: 0%
Eos [8]: 0.6%
Fbg [8]: 200.6 mg/dL
Hb [8]: 15.9 g/dL
Ht [8]: 45.4%
Lym [8]: 77%
MCH [8]: 19.4 pg
MCHC [8]: 35%
MCV [8]: 55.4 fL
Mono [8]: 2.2%
Neu [8]: 19.6%
PT [8]: 16.1 s
Plat [8]: 95.1 x10_4/uL
RBC [8]: 820.2 x10_4/ul
Ret [8]: 1.6%
WBC [8]: 91.7 x10_2/uL
KIDNEY_L [6]: 1 g
KIDNEY_R [6]: 1 g
KIDNEY_TOTAL [6]: 2 g
KIDNEY_L [7]: 1.1 g
KIDNEY_R [7]: 1.1 g
KIDNEY_TOTAL [7]: 2.3 g
KIDNEY_L [8]: 1.1 g
KIDNEY_R [8]: 1.1 g
KIDNEY_TOTAL [8]: 2.3 g
LIVER [6]: 9.3 g
LIVER [7]: 10.5 g
LIVER [8]: 11.6 g
A/G [6]: 2
ALP [6]: 1237 IU/L
ALT [6]: 44 IU/L
AST [6]: 62.8 IU/L
BUN [6]: 16.6 mg/dL
CRE [6]: 0.4 mg/dL
Ca [6]: 10.4 mg/dL
Cl [6]: 105.2 meq/L
DBIL [6]: 0.1 mg/dL
GLC [6]: 178.4 mg/dL
IP [6]: 5.9 mg/dL
K [6]: 3.7 meq/L
LDH [6]: 214.2 IU/L
Na [6]: 141.8 meq/L
PL [6]: 118.2 mg/dL
RALB [6]: 3.5 g/dL
TBIL [6]: 0.2 mg/dL
TC [6]: 45.8 mg/dL
TG [6]: 76.4 mg/dL
TP [6]: 5.3 g/dL
gamma-GTP [6]: 1 IU/L
A/G [7]: 1.9
ALP [7]: 959.2 IU/L
ALT [7]: 33.2 IU/L
AST [7]: 58 IU/L
BUN [7]: 18.8 mg/dL
CRE [7]: 0.4 mg/dL
Ca [7]: 10.2 mg/dL
Cl [7]: 103 meq/L
DBIL [7]: 0.1 mg/dL
GLC [7]: 189.8 mg/dL
IP [7]: 6.9 mg/dL
K [7]: 3.6 meq/L
LDH [7]: 196 IU/L
Na [7]: 142 meq/L
PL [7]: 135.8 mg/dL
RALB [7]: 3.5 g/dL
TBIL [7]: 0.2 mg/dL
TC [7]: 57.4 mg/dL
TG [7]: 80.2 mg/dL
TP [7]: 5.4 g/dL
gamma-GTP [7]: 0.8 IU/L
A/G [8]: 1.9
ALP [8]: 934.8 IU/L
ALT [8]: 34 IU/L
AST [8]: 62.4 IU/L
BUN [8]: 19.2 mg/dL
CRE [8]: 0.5 mg/dL
Ca [8]: 10 mg/dL
Cl [8]: 105.2 meq/L
DBIL [8]: 0.1 mg/dL
GLC [8]: 177 mg/dL
IP [8]: 5.6 mg/dL
K [8]: 3.5 meq/L
LDH [8]: 271.6 IU/L
Na [8]: 143 meq/L
PL [8]: 126.4 mg/dL
RALB [8]: 3.8 g/dL
TBIL [8]: 0.2 mg/dL
TC [8]: 49.2 mg/dL
TG [8]: 101.4 mg/dL
TP [8]: 5.8 g/dL
gamma-GTP [8]: 1 IU/L
